Reference: patent US12533394B2, “Compositions and methods for treating metabolic disorders” (GlycoMantra Inc., priority 2023, dated 2026)

How the values were obtained:
Gal3 [1] = target: T1, Gal3 (Homo sapiens, UniProt P17931); conditions: Table 1, comparison galectin antagonists; cited from earlier work
Gal3 [2] = target: T1, Gal3; assay: Solid-phase assay, blocking Gal3 binding (inhibition curves, FIG. 2)
From the text: For the purposes of this disclosure, an “inhibition curve” is a graphical representation used in pharmacology and biochemistry to show how an inhibitor affects the activity of an enzyme, a biological process, or the like. Typically, an inhibition curve plots the concentration of an inhibitor on the x-axis and the corresponding reduction in an enzyme activity (or another measurable response) on the y-axis. An inhibition curve may help visualize the relationship between inhibitor concentration and its effectiveness. As a nonlimiting example, an inhibition curve may be used to determine a half-maximal inhibitory concentration or IC50 value. For the purposes of this disclosure, half-maximal inhibitory concentration or IC50 is the concentration of an inhibitor needed to reduce the activity of a receptor or an enzyme by 50%. A small IC50 value typically indicates a stronger binding affinity between an inhibitor and its target, and vice versa. IC50 is a commonly used indication regarding a drug's efficacy and potency and is often used in pharmacological research. For the purposes of this disclosure, drug potency is the amount of a drug needed to produce a given effect. […] It is often measured using the EC50, i.e., the concentration at which 50% of the maximum effect is observed. […]

T1 sequence (P17931 whole entry, species assumed): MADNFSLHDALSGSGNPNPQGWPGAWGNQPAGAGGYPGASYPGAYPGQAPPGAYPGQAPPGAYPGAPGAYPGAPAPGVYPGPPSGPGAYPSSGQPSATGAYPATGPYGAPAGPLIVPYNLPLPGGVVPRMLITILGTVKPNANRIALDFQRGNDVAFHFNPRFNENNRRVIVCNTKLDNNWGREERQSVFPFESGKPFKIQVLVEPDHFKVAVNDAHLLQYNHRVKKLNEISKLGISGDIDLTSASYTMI

SMILES	Specificity to Gal3 (Gal3 [1])	IC50 (Gal3 [2])
OC[C@H]1O[C@@H](S[C@@H]2O[C@H](CO)[C@H](O)[C@H](n3cc(-c4cccc(F)c4)nn3)[C@H]2O)[C@H](O)[C@@H](n2cc(-c3cccc(F)c3)nn2)[C@H]1O [TD139]	No	–
CC(=O)N[C@H]1C(O)O[C@H](CO)[C@H](O)[C@@H]1O[C@@H]1O[C@H](CO)[C@H](O)[C@H](O)[C@H]1O (some centres unmarked) [synthetic TFD, Galβ1-3GalNAc]	–	200 µM
